B1: Cdt2^PIP-3A: Cdt2 with I709, Y712, and F713 all mutated to alanine (protein, UniProt Q9NZJ0 1-730, looked up, variant I709A Y712A F713A)
Denticleless protein homolog: MLFNSVLRQPQLGVLRNGWSSQYPLQSLLTGYQCSGNDEHTSYGETGVPVPPFGCTFSSAPNMEHVLAVANEEGFVRLYNTESQSFRKKCFKEWMAHWNAVFDLAWVPGELKLVTAAGDQTAKFWDVKAGELIGTCKGHQCSLKSVAFSKFEKAVFCTGGRDGNIMVWDTRCNKKDGFYRQVNQISGAHNTSDKQTPSKPKKKQNSKGLAPSVDFQQSVTVVLFQDENTLVSAGAVDGIIKVWDLRKNYTAYRQEPIASKSFLYPGSSTRKLGYSSLILDSTGSTLFANCTDDNIYMFNMTGLKTSPVAIFNGHQNSTFYVKSSLSPDDQFLVSGSSDEAAYIWKVSTPWQPPTVLLGHSQEVTSVCWCPSDFTKIATCSDDNTLKIWRLNRGLEEKPGGDKLSTVGWASQKKKESRPGLVTVTSSQSTPAKAPRAKCNPSNSSPSSAACAPSCAGDLPLPSNTPTFSIKTSPAKARSPINRRGSVSSVSPKPPSSFKMSIRNWVTRTPSSSPPITPPASETKIMSPRKALIPVSQKSSQAEACSESRNRVKRRLDSSCLESVKQKCVKSCNCVTELDGQVENLHLDLCCLAGNQEDLSKDSLGPTKSSKIEGAGTSISEPPSPISPYASESCGTLPLPLRPCGEGSEMVGKENSSPENKNWLLAMAAKRKAENPSPRSPSSQTPNSRRQSGKKLPSPVTITPSSMRKACTAAHRKSQEDFCGPEHSTEL
modifications: FLAG tag
notes: Cdt2 with I709, Y712, and F713 all mutated to alanine

How the values were obtained:
Type in all cases: cell-based, human
U2OS cells = assay: Nuclear enlargement / re-replication in U2OS cells; conditions: siCdt2 72 h
Procedure: Next, we examined Cdt1 degradation after the onset of the S phase in the Cdt2^PIP-3A-expressing cells. Cyclin A is present in the S and G2 phase, when Cdt1 should be degraded. Thus, Cdt1 should be present in cells that are negative for cyclin A, and absent in cells that are positive for cyclin A ([Nishitani et al, 2006]; [Xouri et al., 2007a], [2007b]). Cdt1 degradation after the onset of the S phase is carried out by two ubiquitin ligases, CRL1^Skp2 and CRL4^Cdt2. We depleted the substrate recognition subunits, Cdt2 and/or Skp2, by siRNA, and the percentage of Cdt1 positive cells among cyclin A–positive cells was assessed by immunofluorescence. In control siRNA-transfected U2OS cells, ∼2% of cyclin A–positive cells stained positive for Cdt1. […]
Figure 8. […] The frequency of Cdt1-positive (+) cells among cyclin A–positive (+) cells was calculated (n = 3). […] (D) Cells treated with siCdt2 or control siLuc were measured for their nuclear size (n = 200 for each), and are shown in a scatter plot. […]
Double-stranded RNAs were transfected at 100 nM using Oligofectamine (Invitrogen) or HiPerFect (QIAGEN). […] For Cdt1 silencing in Fig 1A and B, unsychronized HeLa cells were transfected twice with 200 nM of Cdt1 siRNA or control luciferase siRNA using Lipofectamine 2000 with a time interval of 24 h and were analysed 48 h after the second transfection. […]

[1] = test system: UV-C–damaged sites in MCF7 cells; assay: FRAP of GFP-tagged proteins at sites of local UV-C damage in MCF7 cells
Procedure: (C) MCF7 cells were transfected with the indicated GFP-tagged plasmids and 24 h later they were locally UV-C irradiated (50 J/m^2). 20 min following irradiation, FRAP experiments were conducted at the site of damage and in untreated cells (Fig S1). FRAP data were analysed with easyFRAP. Mean normalized fluorescence intensities at the site of damage as a function of time following photobleaching are shown. (D) MCF7 cells were synchronized in the S phase by treatment with 2-mM thymidine for 24 h. Upon release, cells were transfected with siCdt1 or control siLuc in parallel with a plasmid expressing GFP-tagged Cdt2. Cells were then synchronised in the M phase by treatment with 50 ng/ml nocodazole for 12 h, released into G1 for 5 h, and locally UV-C irradiated (50 J/m^2). 20 min after irradiation, the cells were analysed by FRAP. Mean normalized fluorescence recovery curves at the sites of damage are shown.
To perform micropore UV irradiation, cells were cultured on cover slips, washed twice with PBS, and subsequently covered with an isopore polycarbonate membrane filter (Millipore) with a pore size of either 3 or 5 μm in diameter, and irradiated. UV irradiation was achieved using a UV lamp (SUV-16, As One, Japan) with a dose rate of 0.4 J/m^2·s, which was monitored with a UV radiometer (UVX Radiometer, UVP) at 254 nm, or with a UV box equipped with a UV-C lamp monitored with a VLX-3W radiometer (Vilber Lourmat) at 254 nm (CX-254 sensor). The filter was removed and cells were either fixed or cultured for the indicated time before fixation, and processed for immunofluorescence. For FRAP analysis, cells were cultured for 20 min to allow recruitment to sites of damage before photobleaching.
Cells (HeLa or MCF7) were plated on 35-mm glass-bottom dishes in phenol-red–free medium (Invitrogen). […] A Leica TCS SP5 microscope equipped with a 63x magnification 1.4 NA oil-immersion lens and FRAP booster were used. During FRAP, cells were maintained at 37°C and 5% CO2. A defined circular region of interest with 2 μm diameter (ROI1) was placed in the nucleus and at the recruitment sites. GFP was excited using a 488-nm argon laser line. 50 pre-bleach images were acquired with 3% of the 488-nm line at 60% argon laser intensity, followed by a single bleach pulse on ROI1 using 476-nm and 488-nm laser lines combined at maximum power. In this manner, at least 60% of the fluorescence in ROI1 was bleached successfully. Next, 400 post-bleach images with a 0.052 s interval were recorded. Mean intensities of ROI1, the whole nucleus (ROI2) and an area outside of the nucleus (ROI3) were quantified and exported as .csv format files.

PCNA mono-ubiquitination = assay: Mono-ubiquitination of PCNA; conditions: in comparison with Cdt2^wt-expressing cells, Fig S7B
Source text: Figure S7. Cdt2 PIP box is important for CRL4^Cdt2 activity in U2OS cells. (A) U2OS stable cells expressing Cdt2^WT or Cdt2^PIP-3A. U2OS cells were transfected with expression vectors for Cdt2^WT-FLAG or Cdt2^PIP-3A-FLAG, and isolated stable clones were verified by immunofluorescent analysis and Western blot analysis. Frequency of expressing cells for each construct was shown (%). (B) Poly-ubiquitination assay with U2OS stable cells. U2OS cells and Cdt2^WT-3FLAG or Cdt2^PIP-3A-3FLAG expressing stable U2OS cells were treated with MG132 for 3 h or not (−), and whole-cell extracts were prepared for Western blotting. (C) Cells were transfected with siCdt2 or control siLuc for 72 h, irradiated with UV (+, 5 J/m^2) or not (−), and collected 1h later for Western blotting. Relative levels of Cdt1 were shown, UV (−) level set as 1.0 (average of two independent experiments).

DDB1, Cul4A = assay: Co-immunoprecipitation of DDB1 / Cul4A with FLAG-tagged Cdt2 constructs; conditions: anti-FLAG IP, cross-linked cells
Source text: Before cell lysate preparation, cells were cross-linked.
Figure 3. […] HEK293 cells were transfected with plasmids expressing the indicated Cdt2 fused to a C-terminal FLAG tag, cross-linked, and precipitated with anti-FLAG antibodies (arrows). […] The bands in the blank lanes for Cul4A blotting correspond to the cross-reacting bands to pre-stained marker. […] HEK293 cells were transfected with the indicated plasmids and treated as in A. * indicates nonspecific bands derived from IgGs. (C) A schematic drawing of the Cdt2 domain structure highlighting the C-terminal PIP box and a sequence alignment of PIP boxes in various organisms. The alanine-changed PIP box mutant of Cdt2 was shown (PIP-3A) together with Cdt1 PIP box. (D) HEK293 cells were transfected with Cdt2^WT or PIP box mutant (Cdt2^PIP-3A) C-terminally fused to a FLAG tag, treated as in B, and Cdt2 was precipitated with anti-FLAG resin.
Control or Cdt2-FLAG expressing 293 cells that were UV irradiated (50 J/m^2), or not UV irradiated, or in the middle S phase (5 h after release from aphidicolon arrest) were fixed with 0.02% formaldehyde for 10 min, lysed using 0.1% Triton X-100-containing modified cytoskeleton (mCSK) buffer (10 mM Pipes, pH 7.9, 100 mM NaCl, 300 mM sucrose, 0.1% [vol/vol] Triton X-100, 1 mM phenylmethylsulfonyl fluoride, 10 mM β-glycerophosphate, 1 mMNa3VO4, 10 mM NaF), and then sonicated. After centrifugation (120,000g, Beckman Type 45Ti rotor, for 20 min at 4°C), the supernatants were mixed with anti-FLAG antibody-conjugated magnetic beads (M8823; Sigma-Aldrich) for 1 h at 4°C to obtain immunoprecipitates. The precipitate was washed with ice-cold 0.1% Triton X-100 containing mCSK buffer and subsequently suspended in SDS sample buffer.

[2] = GFP-tagged, site of UV-C damage (50 J/m^2), 20 min after irradiation

Molecule | enlarged nuclei (re-replication) phenotype (U2OS cells) | half-recovery time [1, 2] [s] | immobile fraction [1, 2] [%] | FRAP binding kinetics at damage sites after Cdt1 depletion ([1]; MCF7 synchronized in G1, siCdt1 versus siLuc, Fig 1D) | mUb-PCNA level (PCNA mono-ubiquitination) | binding to DDB1 (and Cul4A) (DDB1, Cul4A)
Cdt2: Cdt2 tagged with GFP, transiently expressed in MCF7 cells | rescued | 0.83 | 16 | remain the same despite the absence of Cdt1 | – | –
B1 | – | – | – | – | decreased | without significantly affecting interaction with Cul4A and DDB1

— publication PMC6312923 (Life Science Alliance, 2018)
